Laboratory results published in ChEMBL document CHEMBL1148587, “Imidazo[1,2-a]pyrimidines as functionally selective and orally bioavailable GABA(A)alpha2/alpha3 binding site agonists for the treatment of anxiety disorders” (J Med Chem, 2006).
Active and inactive are the calls of the source. No cut-off for these calls is given here.

Key:
[1] = Plasma clearance in rat; type: ADME, organism-based
[2] = Plasma clearance in dog; type: ADME, organism-based, Canis lupus familiaris
[3] = target: T1, GABA-A receptor; alpha-3/beta-3/gamma-2 (Homo sapiens, UniProt P18507+P28472+P34903); experiment: Displacement of [3H]Ro-151788 from human recombinant GABAA alpha3 in combination with beta3gamma2 expressed in L(tk-) cells; type: cell-based
T1 sequence (P18507 whole entry): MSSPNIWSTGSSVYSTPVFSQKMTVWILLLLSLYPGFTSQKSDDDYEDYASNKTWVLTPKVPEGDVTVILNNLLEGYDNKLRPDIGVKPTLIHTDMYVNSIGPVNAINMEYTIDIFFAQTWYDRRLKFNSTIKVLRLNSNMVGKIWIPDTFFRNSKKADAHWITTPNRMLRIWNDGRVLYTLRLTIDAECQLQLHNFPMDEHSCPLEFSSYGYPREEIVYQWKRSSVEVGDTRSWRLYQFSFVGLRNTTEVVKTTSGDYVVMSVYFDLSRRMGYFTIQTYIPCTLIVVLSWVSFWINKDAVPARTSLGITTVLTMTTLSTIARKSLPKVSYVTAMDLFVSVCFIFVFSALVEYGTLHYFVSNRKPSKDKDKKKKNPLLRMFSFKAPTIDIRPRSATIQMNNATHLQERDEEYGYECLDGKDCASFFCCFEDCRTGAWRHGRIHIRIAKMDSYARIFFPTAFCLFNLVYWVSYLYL
T1 sequence (P28472 whole entry): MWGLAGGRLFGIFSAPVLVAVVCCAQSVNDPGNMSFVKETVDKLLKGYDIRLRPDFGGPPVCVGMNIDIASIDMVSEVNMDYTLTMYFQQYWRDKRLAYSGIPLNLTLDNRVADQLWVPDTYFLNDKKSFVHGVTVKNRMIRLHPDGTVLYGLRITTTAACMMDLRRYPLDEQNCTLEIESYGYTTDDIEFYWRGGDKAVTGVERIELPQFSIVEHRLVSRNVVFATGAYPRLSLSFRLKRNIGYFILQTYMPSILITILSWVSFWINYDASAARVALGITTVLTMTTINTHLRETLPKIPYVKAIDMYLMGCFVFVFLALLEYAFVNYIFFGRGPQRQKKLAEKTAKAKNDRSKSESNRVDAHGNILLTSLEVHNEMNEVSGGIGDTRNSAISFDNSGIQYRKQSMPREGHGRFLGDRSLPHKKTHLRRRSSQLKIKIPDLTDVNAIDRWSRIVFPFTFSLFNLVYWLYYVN
T1 sequence (P34903 whole entry): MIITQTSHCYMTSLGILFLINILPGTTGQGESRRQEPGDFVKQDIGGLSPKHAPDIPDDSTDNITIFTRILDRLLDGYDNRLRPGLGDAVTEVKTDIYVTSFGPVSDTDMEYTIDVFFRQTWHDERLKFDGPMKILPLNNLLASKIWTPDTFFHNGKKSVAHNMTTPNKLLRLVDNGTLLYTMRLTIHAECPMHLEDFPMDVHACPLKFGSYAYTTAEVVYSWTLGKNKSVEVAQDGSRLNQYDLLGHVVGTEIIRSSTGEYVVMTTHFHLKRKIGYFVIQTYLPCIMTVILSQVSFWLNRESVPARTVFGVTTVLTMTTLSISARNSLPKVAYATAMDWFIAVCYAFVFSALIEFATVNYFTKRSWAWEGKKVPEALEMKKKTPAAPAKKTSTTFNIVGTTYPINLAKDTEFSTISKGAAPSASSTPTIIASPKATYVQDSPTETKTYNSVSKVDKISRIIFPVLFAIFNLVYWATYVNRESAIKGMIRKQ

[4] = Plasma clearance in rhesus monkey; type: ADME, organism-based, Macaca mulatta
Rattus norvegicus [5] = experiment: Effect on activity impairment in rat chain pulling assay at 30 mg/kg, po; type: functional, organism-based; set-up: dose 30 mg/kg
Rattus norvegicus [6] = experiment: Activity in rat elevated plus maze assay at 1 mg/kg, po; type: functional, organism-based; set-up: dose 1 mg/kg
[7] = target: T2, GABA-A receptor; alpha-5/beta-3/gamma-2 (Homo sapiens) (UniProt P18507+P28472+P31644); experiment: Efficacy against human recombinant GABAA alpha5 in combination with beta3gamma2 expressed in L(tk-) cells by whole cell patch clamp method; type: functional, cell-based
[8] = Half life in rhesus monkey; type: ADME, organism-based, Macaca mulatta; conditions: in vivo
[9] = Oral bioavailability in rat; type: ADME, organism-based; conditions: in vivo
[10] = Oral bioavailability in rhesus monkey; type: ADME, organism-based, Macaca mulatta; conditions: in vivo
[11] = Oral bioavailability in dog; type: ADME, organism-based, Canis lupus familiaris; conditions: in vivo
[12] = target: GABA-A receptor; alpha-1/beta-3/gamma-2 (Homo sapiens) (UniProt P14867+P18507+P28472); experiment: Efficacy against human recombinant GABAA alpha-1-beta-3-gamma-2 expressed in L(tk-) cells by whole cell patch clamp method relative to chlordiazepoxide; type: functional, cell-based
[13] = target: T3, GABA-A receptor; alpha-2/beta-3/gamma-2 (Homo sapiens) (UniProt P18507+P28472+P47869); experiment: Efficacy against human recombinant GABAA alpha-2-beta-3-gamma-2 expressed in L(tk-) cells by whole cell patch clamp method relative to chlordiazepoxide; type: functional, cell-based
[14] = target: T3, GABA-A receptor; alpha-2/beta-3/gamma-2 (Homo sapiens); experiment: Efficacy against human recombinant GABAA alpha-2-beta-3-gamma-2 expressed in L(tk-) cells by whole cell patch clamp method; type: cell-based
[15] = target: GABA-A receptor; alpha-3/beta-3/gamma-2 (Homo sapiens) (UniProt P18507+P28472+P34903); experiment: Efficacy against human recombinant GABAA alpha-3-beta-3-gamma-2 expressed in L(tk-) cells by whole cell patch clamp method relative to chlordiazepoxide; type: functional, cell-based
Rattus norvegicus [16] = experiment: Activity in rat elevated plus maze assay at 3 mg/kg, po; type: functional, organism-based; set-up: dose 3 mg/kg
[17] = target: T2, GABA-A receptor; alpha-5/beta-3/gamma-2 (Homo sapiens); experiment: Efficacy against human recombinant GABAA alpha-5-beta-3-gamma-2 expressed in L(tk-) cells by whole cell patch clamp method relative to chlordiazepoxide; type: functional, cell-based

| clearance [1] | clearance [2] | Ki [3] | clearance [4] | Efficacy [7] | half-life [8] | bioavailability [9] | bioavailability [10] | bioavailability [11] | Efficacy [12] | Efficacy [13] | Efficacy [14] | Efficacy [15] | Efficacy [17] | Structure (SMILES) | Activity (Rattus norvegicus [5]) | Activity (Rattus norvegicus [6]) | Activity (Rattus norvegicus [16]) |
| --- | --- | --- | --- | --- | --- | --- | --- | --- | --- | --- | --- | --- | --- | --- | --- | --- | --- |
| 10.3 mL/min/kg | 2.9 mL/min/kg | 0.73 nM | 3 mL/min/kg | 2% | 13.4 h | 53% | 49% | 29% | – | – | – | – | – | N#Cc1cc(F)ccc1-c1cc(-c2cnc3nc(C(F)(F)F)ccn23)ccc1F | inactive | Active | – |
| 9.1 mL/min/kg | 8.2 mL/min/kg | 4 nM | – | 20% | – | 77% | – | 48% | 5% | 39% | 48% | 54% | 18% | CC(C)(O)c1ccn2c(-c3ccc(F)c(-c4cccnc4)c3)cnc2n1 | inactive | – | Active |
